{"source": "patent US11168052B2", "about": "“Carbamate derivative compounds, processes for preparing them and their uses” (BIO-PHARM SOLUTIONS CO., LTD., priority 2016, dated 2021)", "key": {"[1]": {"test_system": "Post operation-induced pain model in rats", "assay": "Antiallodynic activity on post operative-induced pain model (PO), von Frey test", "assay_type": "in vivo, Sprague-Dawley rats", "settings": "dose 200 mg/kg, von Frey paw withdrawal threshold relative to sham", "description": "Male Sprague-Dawley rats (Orient Bio, Korea, 230-250g) were habituated at least 3 days before surgery, and were allowed free access to food and water throughout the experimentation. Room temperature and humidity were maintained at 24±2 and 50±10%, respectively. The process of performing the post-operation model's surgery was adapted from Brennan et al (1996). At first, rats with allodynia (threshold valueless than 8 g) were excluded in Pre-von Frey Test. During the post-operation surgery, rats were anesthetized under gaseous anesthesia with 2% isoflurane. The rat was placed, lying face down, on 37 degree warm plate to prevent against hypothermia. The ipsilateral plantar aspect (left side) of the hind paw was prepared in a sterile manner with a 10% povidone-iodine solution. […]\nFor efficacy measure, the threshold value of group C was assigned 100% efficacy, and the percentage of the threshold values of group A compared to group C (for each different dose level) were calculated as the efficacies. Base on these efficacy values, ED50 was calculated using log fitting. […]\nFor pain threshold test, all animals were placed in a stainless steel meshed chamber and habituated for 30 min in the test cage. The tactile sensitivity of the ipsilateral hind paw was measured using the up-and-down method (Dixon, 1980) with seven von Frey monofilaments (0.4, 1, 2, 4, 6, 8, and 15 g) using 3 trials. […]"}, "[2]": {"test_system": "corneally kindled rats", "assay": "Corneal kindling (CK) rat model", "assay_type": "in vivo, Sprague-Dawley rats", "settings": "po", "description": "Male Sprague-Dawley rats (purchased from Orient Bio Inc. Korea) of body weight 85-100 g were used for these studies. The MES test using the electroshock seizure apparatus designed by Rodent Shocker Type221 (Hugo Sachs Elektronik, Germany). The kindled rat models were electrically stimulated (8 mA, 60 Hz, 2 s, corneal electrodes) twice daily for 21 days until stage 5 seizure scored by Racine's scale (Racine, 1972) were evoked. The kindled rats were fasted and adapted to test condition, for at least 1 hour before the administration of test material. The drugs were administered orally (p.o.) in a volume of 4 μl/g body weight. The corneally kindled rat model test is a model for generalized […] seizures or bipolar disorder and identifies the compound which prevents seizure or bipolar disorder spread. The shock level was set at 8 mA, 60 Hz and the duration was set at 2 s. A drop of 0.9% saline was placed in each eye, the electrodes were placed over the eyes, and the shock was administered immediately. Pharmacological effects of the test materials were evaluated to compare the test groups (n=6) with a control group (n=6). Control group was administrated vehicle, only. The peak time was determined by administration test material's random dose for 0.5, 1, 2, 4 hour. The time that the most protect was defined peak time and ED50 was determined by other dose administration at peak time. […]"}}}
{"smiles": "NC(=O)O[C@@H]1CCc2cccc(Cl)c2[C@@H]1O", "note": "[Example 1, (1S, 2R)-8-chloro-1-hydroxy-1,2,3,4-tetrahydronaphthalen-2-yl carbamate]", "values": [{"measurement": "Post Operation Efficacy (% of sham threshold)", "setting": "[1]", "result": "200 (29.8%)"}, {"measurement": "ED50", "setting": "[2]", "result": 7.5, "unit": "mg/kg"}]}
